{"source": "patent US20020146823A1", "about": "“Method for promoting hematopoietic and mesenchymal cell proliferation and differentiation” (The University of Southern California, priority 1997, published 2002)", "key": {"rat MSC": {"system": "rat MSC", "experiment": "Rat mesenchymal stem cell proliferation in bone marrow cultures", "type": "cell-based, Sprague Dawley rats", "settings": "1 to 100 μg/ml", "method": "These studies were conducted to determine the effect that AII would have on the proliferation of MSC. Bone marrow cells were harvested from the femur and tibia of female Sprague Dawley rats by flushing the bones with Dulbecco's Minimal Essential Medium-High Glucose (“DMEM-HG”) with a syringe and an 18 gauge needle. These cells were cultured in 24 well plates at 5×10^3 cells/mm^2 in DMEM-HG containing selected lots of fetal calf serum (FCS) and antibiotics (complete medium) at 37° C. incubator containing 5% CO2 in air. Twenty-four hours after the initiation of the cultures the medium and nonadherent cells were aspirated and fresh medium was added. To each of these several wells, complete medium with (1 to 100 μg/ml) or without AII was added. The migration of cells from the clones and their proliferation was followed by microscopic examination. Every 4 days the old medium was removed and fresh medium was added to the cultures. These studies were conducted to determine the effect that inclusion of All analogues and fragments in the cell culture of MSC would have on the proliferation of these cells. Bone marrow cells were harvested from the femur and tibia of female Sprague Dawley rats by flushing the bones with Dulbecco's Minimal Essential Medium-High Glucose (“DMEM-HG”) with a syringe and an 18 gauge needle. […]"}, "AT2 receptor": {"molecular_target": "T1, AT2 receptor (Homo sapiens, UniProt P50052)", "T1 sequence (P50052 1-363)": "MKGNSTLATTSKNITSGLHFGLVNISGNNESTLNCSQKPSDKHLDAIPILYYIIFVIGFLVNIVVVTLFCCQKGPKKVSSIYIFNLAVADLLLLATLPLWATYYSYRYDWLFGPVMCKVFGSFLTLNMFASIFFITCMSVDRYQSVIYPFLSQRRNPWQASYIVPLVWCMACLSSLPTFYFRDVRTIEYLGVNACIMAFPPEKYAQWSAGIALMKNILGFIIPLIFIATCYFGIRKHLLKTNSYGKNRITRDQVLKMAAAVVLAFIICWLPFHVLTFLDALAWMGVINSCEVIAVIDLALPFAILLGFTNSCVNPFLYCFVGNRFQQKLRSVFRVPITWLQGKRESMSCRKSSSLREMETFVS", "settings": "cited from earlier work"}, "[1]": {"system": "rat peritoneal macrophages", "experiment": "Respiratory burst (hydrogen peroxide generation) in rat peritoneal macrophages", "type": "cell-based", "settings": "alone and in response to PMA; 4 hours exposure", "method": "(§1) The respiratory burst of leukocytes (macrophages and polymorphonuclear neutrophils) is one component of the mediator system used to kill bacteria. As with phagocytosis, the level of this respiratory burst activity in resident macrophages is low. […] Studies were conducted to assess the effect of in vitro exposure of murine or rat peritoneal macrophages and human peripheral blood mononuclear cells (PBMC) to various concentrations of AII on the capacity to generate hydrogen peroxide via the respiratory burst system. For the human studies, five different donors were examined.\nThe murine or rat peritoneal cells were harvested by lavage with 5-15 ml of cold PBS with 0.5% bovine serum albumin. The human PBMC were harvested by venipuncture from normal human volunteers and isolated from peripheral blood by Ficoll Hypaque density centrifugation. After isolation, the cells were resuspended at 1×10^6 cells/ml and placed at 100 μl per well into 96 well plates. The cells were incubated with various concentrations of AII or AII analogues and fragments for 4 hours at 37° C. The cells were then preloaded with a fluorescent probe for hydrogen peroxide, 2,7 dichlorofluorescein acetate, which is nonfluorescent in the absence of hydrogen peroxide. […] One hour after stimulation the level of fluorescence produced was measured on a Cytofluor 2350 multiwell fluorometer."}, "[2]": {"system": "murine bone marrow stem cells", "settings": "cited from earlier work"}, "[3]": {"system": "human peripheral blood mononuclear cells (PBMC)", "experiment": "Respiratory burst (hydrogen peroxide generation) in human PBMC", "type": "cell-based", "settings": "alone and in response to PMA; 4 hours exposure; five donors", "method": "as §1\nThe murine or rat peritoneal cells were harvested by lavage with 5-15 ml of cold PBS with 0.5% bovine serum albumin. The human PBMC were harvested by venipuncture from normal human volunteers and isolated from peripheral blood by Ficoll Hypaque density centrifugation. After isolation, the cells were resuspended at 1×10^6 cells/ml and placed at 100 μl per well into 96 well plates. The cells were incubated with various concentrations of AII or AII analogues and fragments for 4 hours at 37° C. The cells were then preloaded with a fluorescent probe for hydrogen peroxide, 2,7 dichlorofluorescein acetate, which is nonfluorescent in the absence of hydrogen peroxide. Fifteen minutes later, 10 ng/ml of phorbol myristate acetate (+PMA) or PBS (−PMA) was added to stimulate the production of hydrogen peroxide. One hour after stimulation the level of fluorescence produced was measured on a Cytofluor 2350 multiwell fluorometer."}, "[4]": {"system": "murine mesenchymal stem cells", "experiment": "GM-CSF secretion by mouse mesenchymal stem cells (ELISA)", "type": "cell-based, C57B1/6 mice", "settings": "0.01 to 100 μg/ml; 24, 48 or 72 hours", "method": "One factor whose production is induced during differentiation of mesenchymal stromal cells is granulocyte-macrophage-colony stimulating factor (GM-CSF). Therefore, the effect of AII on the differentiation of mesenchymal cells was assessed by the production of colony stimulating factors, specifically GM-CSF, into the culture supernatant.\nBone marrow cells were harvested from the femur and tibia of C57B1/6 mice (Battin and Kingdom, Gilroy, Calif.) with saline containing 2% fetal calf serum. Thereafter, the red blood cells were lysed by brief exposure to a hypotonic ammonium chloride solution. The nucleated cells were then resuspended in 3 ml of […] phosphate buffered saline (PBS; pH 7.2) and rapidly layered over 7 ml of Percoll (70% Percoll gradient separation). This combination of nucleated bone marrow cells and Percoll were centrifuged at 1800 rpm for 20 minutes. After centrifugation, the cells in the upper 25% of the Percoll gradient were harvested and washed 3 times with PBS to remove excess Percoll. The cells were then resuspended at 4×10^5 cells/ml in alpha minimal essential medium containing 10% horse serum, 10% fetal calf serum and 5×10^−5 M 2-mercaptoethanol. […]\nAfter all samples were collected, the level of GM-CSF in the supernatant was measured by Quantikine ELISA (R & D Systems, Minneapolis, Minn.) according to the manufacturer's instructions."}}}
{"substance": "Asp-Arg-Val-Tyr-Ile-His-Pro-Phe (DRVYIHPF; printed: Asp-Arg-Val-Tyr-Ile-His-Pro-Phe) [AII, octapeptide present in humans and other species; known pressor agent, commercially available]", "values": [{"measurement": "number of MSC", "setting": "rat MSC; all time points examined", "value": "increase in the number of MSC in a concentration dependent manner"}, {"measurement": "number of sites from which MSC were migrating (CFU) and size (number of cells) of colonies formed", "setting": "rat MSC; complete medium with serum", "value": "significantly increased"}, {"measurement": "affinity for AT2 relative to AT1", "setting": "AT2 receptor", "value": 100, "unit": "times"}, {"measurement": "ability of leukocytes to generate hydrogen peroxide", "setting": "[1]", "value": "increased the ability of leukocytes to generate hydrogen peroxide both alone and in response to stimulation with PMA"}, {"measurement": "formation of colonies", "setting": "[2]; absence of exogenous colony stimulating factors", "value": "increases the formation of colonies"}, {"measurement": "number and size of colonies formed", "setting": "[2]; lineage-negative bone marrow cells expressing Sca1", "value": "increased the number and size of colonies formed only in the presence of exogenous colony stimulating factors"}, {"measurement": "ability of leukocytes to generate hydrogen peroxide", "setting": "[3]", "value": "increased the ability of leukocytes to generate hydrogen peroxide both alone and in response to stimulation with PMA"}, {"measurement": "production of GM-CSF", "setting": "[4]", "value": "induced an increase"}]}
